Here are results for two compounds from patent publication US20260124170A1, “PHARMACEUTICAL COMPOSITION COMPRISING METABOLITE OF ENAVOGLIFLOZIN, AND USE THEREOF” (DAEWOONG PHARMACEUTICAL CO., LTD., priority 2022, published 2026).

Experiment [1] concerns the target T1, SGLT2 (Homo sapiens, UniProt P31639).
T1 construct: expressed in transfected cells
T1 sequence (P31639 1-672): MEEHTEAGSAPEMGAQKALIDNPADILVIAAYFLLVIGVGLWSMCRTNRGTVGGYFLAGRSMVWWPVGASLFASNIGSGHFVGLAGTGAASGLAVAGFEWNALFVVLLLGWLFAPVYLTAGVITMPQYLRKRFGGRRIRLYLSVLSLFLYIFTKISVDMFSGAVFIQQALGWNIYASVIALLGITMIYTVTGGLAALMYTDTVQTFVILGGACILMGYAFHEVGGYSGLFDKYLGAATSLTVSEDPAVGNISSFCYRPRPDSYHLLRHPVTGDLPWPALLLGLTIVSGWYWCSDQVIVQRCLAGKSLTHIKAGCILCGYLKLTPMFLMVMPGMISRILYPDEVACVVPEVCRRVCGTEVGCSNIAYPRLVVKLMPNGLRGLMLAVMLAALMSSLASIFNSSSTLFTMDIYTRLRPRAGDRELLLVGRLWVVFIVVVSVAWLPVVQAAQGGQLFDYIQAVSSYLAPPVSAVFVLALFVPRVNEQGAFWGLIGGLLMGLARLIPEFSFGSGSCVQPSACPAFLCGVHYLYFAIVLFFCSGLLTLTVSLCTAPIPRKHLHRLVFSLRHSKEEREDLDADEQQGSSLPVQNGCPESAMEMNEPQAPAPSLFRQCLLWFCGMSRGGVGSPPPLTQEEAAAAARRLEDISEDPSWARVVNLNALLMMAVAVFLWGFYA
Nature of the experiment: Inhibition of [14C]AMG uptake in SGLT2-overexpressing CHO cells. Type of experiment: cell-based. Particulars: CHO-SGLT2 cells, 10 μM [14C]AMG, 2 h, 37° C. As to the method: The evaluation was performed in the same manner as the evaluation of SGLT1 inhibition, except that an SGLT2-overexpressing cell line (CHO-SGLT2 stable cells) was used, and the inhibitory evaluation substances described below were used.

For experiment [2], the target named is T2, SGLT1 (Homo sapiens, UniProt P13866).
T2 construct: expressed in transfected cells
T2 sequence (P13866 1-664): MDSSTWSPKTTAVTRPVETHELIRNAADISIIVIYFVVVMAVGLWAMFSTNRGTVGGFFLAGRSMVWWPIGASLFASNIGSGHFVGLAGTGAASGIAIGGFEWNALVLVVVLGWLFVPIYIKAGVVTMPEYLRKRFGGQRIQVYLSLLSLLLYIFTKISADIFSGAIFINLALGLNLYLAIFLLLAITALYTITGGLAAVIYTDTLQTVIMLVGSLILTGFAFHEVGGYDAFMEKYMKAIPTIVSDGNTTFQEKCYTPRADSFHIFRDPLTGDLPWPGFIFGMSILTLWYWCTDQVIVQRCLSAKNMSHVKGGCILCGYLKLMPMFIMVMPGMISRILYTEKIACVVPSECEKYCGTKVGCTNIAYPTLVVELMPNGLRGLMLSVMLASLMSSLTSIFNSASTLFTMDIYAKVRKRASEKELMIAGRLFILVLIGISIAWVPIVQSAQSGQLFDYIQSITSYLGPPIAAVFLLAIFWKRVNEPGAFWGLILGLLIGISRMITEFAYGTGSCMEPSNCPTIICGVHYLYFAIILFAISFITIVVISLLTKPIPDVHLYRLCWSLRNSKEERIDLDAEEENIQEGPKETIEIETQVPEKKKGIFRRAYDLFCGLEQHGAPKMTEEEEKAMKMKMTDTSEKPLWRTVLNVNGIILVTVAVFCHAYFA
Nature of the experiment: Change in SGLT1 inhibition according to drug pretreatment time (CHO-SGLT1). Type of experiment: cell-based. The following applies: pretreatment 0, 1, 2 h; one-way ANOVA. An excerpt:
(§1) All data values are expressed as the mean±SD of […].

The target in experiment [3] is T2, SGLT1. Nature of the experiment: SGLT1 inhibition with varied substrate AMG concentration (Dixon / L-B plot). Particulars: CHO-SGLT1, varied AMG concentration. The experiment is classed as cell-based.
Method: (§3) From these, the inhibition mechanism was confirmed, and the inhibition constant was calculated.
Experiment [4] deals with T1, SGLT2. Nature of the experiment: Change in SGLT2 inhibition according to drug pretreatment time (CHO-SGLT2). The experiment is classed as cell-based. The following applies: for IC50: CHO-SGLT2.
From the text: as §1

Experiment [5] concerns the target T1, SGLT2. Nature of the experiment: SGLT2 inhibition with varied substrate AMG concentration (Dixon / L-B plot). Type of experiment: cell-based.
Method: as §3
In experiment [6] the test system is STZ-induced type 1 diabetic rats. Nature of the experiment: Oral glucose tolerance test in type 1 diabetic rat model. The experiment is classed as in vivo. Particulars: STZ rats, 1 mg/kg, glucose 2 g/kg oral. How it is done: (§2) STZ was administered to Sprague Dawley (SD) male 5-week-old rats on day 0 (G2 to G7, excluding G1), and non-fasting blood glucose levels were measured on day 3 to determine whether type 1 diabetes was induced. On day 7, the experimental substances were administered to each group, and blood and urine samples were collected at 6 h, 24 h, 48 h, and 72 h to measure non-fasting blood glucose levels. On day 14 of the experiment, the experimental animals were fasted for 16 h, and on day 15, 2 g/kg of glucose solution was orally administered after the experimental substances were administered. Thereafter, blood glucose levels were measured at 15, 30, 60, 90, and 120 minutes after glucose administration. After blood collection, the serum was separated, and the IL-6 inflammatory response was evaluated using an interleukin-6 (IL-6) enzyme-linked immunosorbent assay (ELISA) kit.

In another experiment the test system is interleukin-6 (IL-6). Nature of the experiment: Serum IL-6 ELISA in type 1 diabetic rat model. The experiment is classed as in vivo. The following applies: STZ rats, 6, 24, 48, 72 hours after administration. As to the method: as §2
A general note: An ELISA detects its analyte on a solid surface through an enzyme-linked reagent.

As usually defined, the IC50 is the concentration that inhibits the measured activity by half. The term Ki denotes a measure of affinity in units of concentration, obtained from inhibition or displacement. A higher Ki goes with a looser hold on the target. As for `OC[C@H]1O[C@@H](c2ccc(Cl)c(Cc3ccc(O[C@H]4CCOC4)cc3)c2)[C@H](O)[C@@H](O)[C@@H]1O` [Empagliflozin], the IC50 against SGLT2 [1] was 6.65 ± 2.92 nM; at SGLT2 [4] (IC50 according to pretreatment time (nM), SGLT2, 1 h, 1 h pretreatment in sodium-free buffer) it was 6.67 ± 1.29 nM; at SGLT2 [4] (IC50 according to pretreatment time (nM), SGLT2, 2 h, 2 h pretreatment in sodium-free buffer), 7.35 ± 0.82 nM; at SGLT2 [4] (no pretreatment, read-out: IC50 according to pretreatment time (nM), SGLT2, 0 h), 7.2 ± 2.33 nM. Moreover, the “Change in SGLT1 inhibition as exposure time increased” value at SGLT1 [2] is “did not show any significant change or increase in inhibition”. Besides, the “Inhibition mechanism, SGLT1” value at SGLT1 [3] was “Competitive inhibition”. Besides, the “Change in SGLT2 inhibition as exposure time increased” value at SGLT2 [4] (pretreatment 0, 1, 2 h, one-way ANOVA) is recorded as “did not increase or significantly change”. The “Inhibition mechanism, SGLT2” value on SGLT2 [5] (CHO-SGLT2, varied AMG concentration) was “Competitive inhibition”. For the same compound, the affinity at SGLT2 [5] (from slope of L-B plot, CHO-SGLT2), expressed as Ki, was 5.15 nM.

With `CCOc1ccc(Cc2cc([C@@H]3O[C@H](SC)[C@@H](O)[C@H](O)[C@H]3O)ccc2Cl)cc1` [Sotagliflozin], in experiment [6], the “Blood glucose level in OGTT” value is “lowering of the blood glucose level was observed”. Besides, the “Change in IL-6 level” value with interleukin-6 (IL-6) is “slight decrease”.
